From patent US20180193414A1, “COMPOSITIONS AND METHODS FOR TREATING NEUROLOGICAL DISORDERS” (Coda Biotherapeutics, Inc., priority 2015, published 2018)

Legend:
GLYR(F207A/A288G) = target: T1, GLYR(F207A/A288G) (Homo sapiens, UniProt P23415, A316G/F235A); experiment: Pain and anxiety behavioral assays in rodent models of chronic pain (CCI or SNI); type: in vivo; details: rodents with CCI or SNI, intraganglionic or intrathecal AAV6 GlyR(F207A/A288G) vector; 0.1-10.0 mg/kg per day
T1 construct: expressed in transfected cells; host or cells: rodent dorsal root or trigeminal ganglion neurons transduced in vivo with AAV6 vectors
T1 sequence (P23415 29-457 F235A/A316G): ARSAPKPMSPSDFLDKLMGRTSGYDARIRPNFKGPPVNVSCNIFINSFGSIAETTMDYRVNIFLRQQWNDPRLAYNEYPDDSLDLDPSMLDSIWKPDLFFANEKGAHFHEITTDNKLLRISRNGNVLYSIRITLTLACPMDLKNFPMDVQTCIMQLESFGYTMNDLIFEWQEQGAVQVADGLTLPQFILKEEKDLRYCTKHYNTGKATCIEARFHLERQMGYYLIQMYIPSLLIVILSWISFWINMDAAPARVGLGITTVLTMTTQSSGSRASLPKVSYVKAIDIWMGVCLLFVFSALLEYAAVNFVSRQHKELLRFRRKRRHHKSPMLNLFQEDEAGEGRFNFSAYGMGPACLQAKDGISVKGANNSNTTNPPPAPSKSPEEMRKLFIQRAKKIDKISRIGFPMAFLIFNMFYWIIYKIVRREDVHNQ
Description: Day 0: Chronic pain is induced in rodent trigeminal ganglia or dorsal root ganglia using an established peripheral nerve injury method such as the chronic constriction injury (CCI, CO/CFA) or spared nerve injury (SNI) models. See Bennett & Xie. Pain. 1988, Decosterd & Woolf Pain. 2000, and Imamura, Kawamoto, & Nakanishi. Exp. Brain Res. 1997. In some instances, nerve injury may occur after viral vector injection.
Day 7: Intraganglionic or intrathecal injection of 10^8-10^10 vector genomes of AAV6(Y705F+Y731F+T492V)-HSYN-GLYR(F207A/A288G)-FLAG or AAV6-GLY(HSYN-GLYR(F207A/A288G)-FLAG in a volume of approximately 1.0-10 μL is performed in one or multiple dorsal root ganglia or trigeminal ganglia using published methods. See Vit, Ohara, Sundberg et al. Mol Pain. 2009 and Towne, Fischer, Kostic, et al. J Neurosci Methods. 2011, and Pertin, et al. Mol Pain. 2009.
Weeks 2-12 post CCI or SNI: Ivermectin is administered via oral gavage (P0), intraperitoneal injection (IP), subcutaneous injection (SC), or in drinking water for a final dose of 0.1-10.0 mg/kg per day. Pain and anxiety behavioral assays are performed to quantify level of analgesia using established nociception assay including operant assays, mechanical allodynia/hyperalgesia via Von Frey filaments, thermal allodynia/hyperalgesia via Hargreaves method, or anxiety behaviors via elevated plus maze. See review Odd-Geir Berge. […]

[1] = target: T2, alpha 1 GlyR(F207A-A288G) (Homo sapiens, UniProt P23415, A316G/F235A); experiment: Thermal withdrawal latency assay (infrared laser on shaved cheek) after trigeminal ganglion AAV injection; type: in vivo, Sprague-Dawley rats
T2 construct: expressed in transfected cells; host or cells: trigeminal ganglion neurons of adult Sprague-Dawley rats, transduced in vivo with AAV
T2 sequence (P23415 29-457 F235A/A316G): T1 sequence (P23415 29-457 F235A/A316G)
Method: On day 0, bilateral trigeminal ganglion injections of 10 microliters AAV vector containing the alpha 1 GlyR(F207A-A288G) transgene were performed in adult Sprague-Dawley rats. Two months following AAV injections, a single IP injection of ivermectin 10 mg/kg was administered to rats. The following day, rats were prepared for the thermal latency assay by shaving the fur off of their cheek, up to but not including the whisker pad. They were then placed in a 2.75 inch diameter×8 inch clear polycarbonate cylinder and allowed to acclimate to the environment. The rats naturally positioned themselves so their snout is just outside of the cylinder opening. Under video monitoring, the rats were then exposed to the beam of a 2W, infrared (808 nm) laser illumination focused to project a target size of approximately 1 mm×0.5 mm on the shaved cheek area. The rats then responded to the heat generated by the laser with an abrupt head position change (withdrawal reflex). The sequence was then repeated up to 10 trials on each side. The latency between the laser illumination onset and the head withdrawal reflex was measured from the video with video editing software allowing for frame by frame analysis.

[2] = target: T3, human α-1 GlyRM(F207A+A288G) (Homo sapiens, UniProt P23415, A316G/F235A); experiment: Mechanical withdrawal threshold (von Frey, up-down method) in spared nerve injury (SNI) model; type: in vivo, mice
T3 construct: host or cells: mouse dorsal horn neurons transduced in vivo with the AAV vector
T3 sequence (P23415 29-457 F235A/A316G): T1 sequence (P23415 29-457 F235A/A316G)
Description: The expression cassette containing a human synapsin-1 (hSYN) promoter driving expression of the human α-1 GlyRM(F207A+A288G)-FLAG cDNA was constructed using standard molecular biology techniques (see also, FIG. 5 and SEQ ID NO:1 for description of the vector). This cassette was subcloned into a self-complementary AAV bacmid, purified, transfected into Sf9 insect cells to produce recombinant bacuvlovirus, and then amplified. Sf9 cells were double infected using the amplified recombinant baculovirus containing the hSYN-GlyRM cassette and another recombinant baculovirus containing the Rep and AAV6(Y705+731F+T492V) Cap genes to produce recombinant AAV vectors. These vectors were purified, viral titer was determined using qPCR (2.15e^13 vg/ml), and SDS-PAGE was used to verify the purity of AAV vectors (Virovek).
A dorsal hemilaminectomy was made at the level of the lumbar enlargement to expose two segments (about 1.5-2 mm) of lumbar spinal cord, after which the dura mater was incised and reflected. The viral solution was loaded into a glass micropipette (prefilled with mineral oil). The micropipette was connected to a manual micro-injector mounted on a stereotactic apparatus. The viral solution was targeted to the dorsal horn (left side). Along the rostro-caudal axis within the exposed region, 6 injections of 240 nl each were performed, in an equidistant linear fashion. After each injection, 1 min of resting time was observed and then the muscle layer was sutured, the skin closed with staples, and the animals were allowed to recover with heated-pad before they were returned to their home cages. Animals were perfused for histological analysis after the last behavior test.
To produce mechanical hypersensitivity in a model that mimics a neuropathic pain condition, the spared nerve injury (SNI) model, a validated model of mechanical allodynia was used (Shields et al., 2003, The Journal of Pain, 4, 465-470). This model was produced by the sectioning of the common peroneal and the sural nerves and isolating the tibial branch (see FIG. 7). Mechanical withdrawal threshold was assessed by placing mice on an elevated wire-mesh grid and stimulating the plantar surface of the hindpaw with von Frey filaments. The up-down method of Chaplan & Yaksh was used to determine mechanical thresholds before the spinal cord injection of the AAV-GlyRM. […] The hindpaw ipsilateral and contralateral to the vector injection was tested. […] Motor coordination was tested using an accelerating rotarod (Stoelting, USA) at a maximum speed of 33 rpm. The duration that the mouse spent on the rotarod was recorded, with a cut-off at 300 sec. Each mouse went through three training trials and was tested two hours later. Subsequently, all mice received a single IP injection of ivermectin (15 mg/kg or 10 mg/kg) and mechanical thresholds were again tested using the up-down method at 1, 2, 5, 7, and 13 days post SNI. […] The reversal lasted for at least 5 days. […] Animals were then perfused for histology.

hM4D(Gi) DREADD = target: T4, hM4D(Gi) DREADD (Homo sapiens, UniProt P08173, A203G/Y113C); details: cited from earlier work
T4 construct: HA (N); host or cells: primary afferent nociceptors of female C57BL/6 mice transduced in vivo (intraneural AAV6-hSyn-HA-hM4D(Gi)-IRES-mCitrine), as reported by Iyer et al. 2016
T4 sequence (P08173 1-479 Y113C/A203G): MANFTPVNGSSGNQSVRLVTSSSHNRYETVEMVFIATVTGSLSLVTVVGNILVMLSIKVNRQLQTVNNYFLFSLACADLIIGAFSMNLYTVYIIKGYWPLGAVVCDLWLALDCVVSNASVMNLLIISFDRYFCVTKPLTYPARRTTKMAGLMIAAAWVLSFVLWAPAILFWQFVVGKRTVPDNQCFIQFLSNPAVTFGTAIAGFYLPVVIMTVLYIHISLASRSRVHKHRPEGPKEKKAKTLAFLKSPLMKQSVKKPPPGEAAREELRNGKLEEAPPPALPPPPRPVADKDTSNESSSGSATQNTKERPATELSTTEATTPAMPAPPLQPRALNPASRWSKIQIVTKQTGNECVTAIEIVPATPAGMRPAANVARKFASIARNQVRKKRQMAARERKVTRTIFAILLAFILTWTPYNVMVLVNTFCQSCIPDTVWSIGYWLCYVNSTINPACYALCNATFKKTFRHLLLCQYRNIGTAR

For ivermectin, the “improvement in pain related behaviors or anxiety over controls” value (GLYR(F207A/A288G)) was 10%-500%, the “average thermal withdrawal latency” value ([1]; rats two months after bilateral trigeminal ganglion AAV injection, day after single IP 10 mg/kg, pre-treatment average 2.69 seconds) was 5.19 s and the “hypoalgesic threshold shift in thermal pain sensitivity” value ([1]; rats, post versus pre IP 10 mg/kg) was 92.9%. For the same compound, the “duration of analgesia in the SNI model” value ([2]; mice injected with SWB001, single IP injection of ivermectin (15 mg/kg) (FIG. 7)) was 7 to 10 days, the “mechanical hypersensitivity (mechanical thresholds, von Frey)” value ([2]; mice with AAV-GlyRM injected into dorsal horn, SNI, ipsilateral hindpaw, single IP injection 15 mg/kg) was “complete reversal of the mechanical hypersensitivity” and the “mechanical thresholds after repeat dose” value ([2]; mice, SNI, AAV-GlyRM, 10 mg/kg IP on the 13th day, after thresholds had returned to post-injury baseline) was “recovery to non-injury baseline thresholds”. For the same compound, the “mechanical thresholds during follow-up after repeat dose” value ([2]; mice, SNI, AAV-GlyRM, followed for 48 hours after 10 mg/kg IP) was “thresholds remained at baseline”, the “duration of the reversal of mechanical hypersensitivity” value ([2]; mice, SNI, AAV-GlyRM, single IP injection 15 mg/kg) was “at least 5 days” and the “mechanical threshold on the contralateral side (absence of vector)” value ([2]; mice, contralateral hindpaw without vector, single IP injection 15 mg/kg) was “no measurable effect”.

For C[N+]1([O-])CCN(C2=Nc3cc(Cl)ccc3Nc3ccccc32)CC1 [CNO, clozapine-N-oxide], the mechanical withdrawal thresholds (hM4D(Gi) DREADD; hM4D+ mice (AAV6-hSyn-HA-hM4D(Gi)-IRES-mCitrine intraneural), intraperitoneal administration) is given as “increased mechanical withdrawal thresholds” and the “Hargreaves thresholds (thermal sensation)” value (hM4D(Gi) DREADD; hM4D+ mice, after administration) is given as “Strong inhibition of Hargreaves thresholds”.
